From patent publication US20210038607A1, “OXADIAZOLYLTHIOPHENE DERIVATIVES USEFUL AS HISTONE DEACETYLASE INHIBITORS” (Karus Therapeutics Limited, priority 2018, published 2021)
Where two headings read alike, the source gives them in different places.

Columns and labels:
Human HDAC7 = target: T1, Human HDAC7 (Homo sapiens, UniProt Q8WUI4); assay: HDAC7 biochemical assay, class IIa-specific substrate; conditions: read-out: HDAC Isoform IC50 (nM) 7
T1 construct: (a.a. 518-end) with N-terminal GST tag; GST (N); host or cells: baculovirus expression system
T1 sequence (Q8WUI4 518-952 limits assumed): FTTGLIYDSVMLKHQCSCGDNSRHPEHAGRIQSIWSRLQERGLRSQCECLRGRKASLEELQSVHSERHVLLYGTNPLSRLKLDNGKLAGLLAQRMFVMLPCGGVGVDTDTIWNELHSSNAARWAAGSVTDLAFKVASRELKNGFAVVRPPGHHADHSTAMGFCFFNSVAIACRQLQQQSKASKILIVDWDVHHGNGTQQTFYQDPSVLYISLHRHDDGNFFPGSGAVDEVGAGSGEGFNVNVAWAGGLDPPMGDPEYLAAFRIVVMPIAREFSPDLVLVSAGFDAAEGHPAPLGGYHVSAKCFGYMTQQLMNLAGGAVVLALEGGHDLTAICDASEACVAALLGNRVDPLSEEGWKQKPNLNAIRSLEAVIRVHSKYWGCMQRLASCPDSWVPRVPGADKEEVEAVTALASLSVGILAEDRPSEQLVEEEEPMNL
In short: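 GST-tagged HDAC7 (a.a. 518-end, baculovirus-expressed) at 0.001 ng/ul with 50 μM Boc-Lys(trifluoroacetyl)-AMC substrate, 30 min at room temperature in pH 8.0 Tris buffer with BSA, 1% DMSO final. Developer then releases AMC; fluorescence read at 360/460 nm.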

Recombinant human HDAC6 = target: T2, Recombinant human HDAC6 (Homo sapiens, UniProt Q9UBN7); assay: HDAC6 biochemical assay, AMC-labeled peptide substrate
T2 construct: full length, MW=159 kDa; GST (N); host or cells: Sf9 insect cells (baculovirus)
T2 sequence (Q9UBN7 1-1215): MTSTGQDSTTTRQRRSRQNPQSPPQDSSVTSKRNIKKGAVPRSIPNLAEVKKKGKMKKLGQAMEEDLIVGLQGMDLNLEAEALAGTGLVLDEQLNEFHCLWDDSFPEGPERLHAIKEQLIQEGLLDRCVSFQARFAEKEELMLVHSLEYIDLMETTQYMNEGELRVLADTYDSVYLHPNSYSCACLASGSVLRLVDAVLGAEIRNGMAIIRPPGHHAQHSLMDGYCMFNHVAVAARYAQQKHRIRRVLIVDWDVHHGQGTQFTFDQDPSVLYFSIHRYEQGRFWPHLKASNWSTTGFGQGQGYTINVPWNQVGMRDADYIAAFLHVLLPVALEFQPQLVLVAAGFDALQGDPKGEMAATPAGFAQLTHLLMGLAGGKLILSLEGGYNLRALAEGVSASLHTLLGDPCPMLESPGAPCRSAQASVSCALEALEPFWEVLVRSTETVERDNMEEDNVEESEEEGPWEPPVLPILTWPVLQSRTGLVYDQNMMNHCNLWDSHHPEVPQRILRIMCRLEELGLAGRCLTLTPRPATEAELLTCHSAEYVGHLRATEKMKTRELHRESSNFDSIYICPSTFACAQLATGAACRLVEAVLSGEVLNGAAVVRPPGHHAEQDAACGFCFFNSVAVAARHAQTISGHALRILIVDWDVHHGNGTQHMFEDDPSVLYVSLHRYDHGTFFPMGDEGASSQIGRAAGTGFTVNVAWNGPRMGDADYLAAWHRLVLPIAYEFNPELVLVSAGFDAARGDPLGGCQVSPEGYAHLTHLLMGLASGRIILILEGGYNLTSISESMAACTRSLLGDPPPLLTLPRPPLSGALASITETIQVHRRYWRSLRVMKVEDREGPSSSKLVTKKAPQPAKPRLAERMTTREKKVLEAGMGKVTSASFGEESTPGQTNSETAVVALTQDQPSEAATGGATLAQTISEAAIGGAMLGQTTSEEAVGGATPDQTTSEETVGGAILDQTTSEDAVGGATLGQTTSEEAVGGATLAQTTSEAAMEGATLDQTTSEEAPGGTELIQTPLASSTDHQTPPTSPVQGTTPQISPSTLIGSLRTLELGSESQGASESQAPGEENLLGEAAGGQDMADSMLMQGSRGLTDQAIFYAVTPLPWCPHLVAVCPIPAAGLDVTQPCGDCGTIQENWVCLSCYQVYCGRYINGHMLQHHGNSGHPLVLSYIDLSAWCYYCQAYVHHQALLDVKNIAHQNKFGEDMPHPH
In short: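 Two-step fluorogenic read-out: enzyme deacetylates 50 μM RHKK(Ac)AMC for 1 h at 30° C in pH 8.0 Tris buffer with BSA and 1% DMSO, then developer cleavage gives signal at Ex 360/Em 460. Enzyme: 0.3 ng/ul recombinant full-length human HDAC6, GST-tagged, Sf9-expressed.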

Human HDAC1 = target: T3, Human HDAC1 (Homo sapiens, UniProt Q13547); assay: HDAC1 biochemical assay, AMC-labeled peptide substrate; conditions: read-out: HDAC Isoform IC50 (nM) 1
T3 construct: full length with C-terminal His-tag and C-terminal FLAG-tag; His (C); FLAG (C); host or cells: baculovirus expression system
In short: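 Baculovirus-expressed full-length human HDAC1 with His and FLAG tags, 0.3 ng/ul, incubated 1 h at 30° C with compound and 50 μM RHKK(Ac)AMC in Tris pH 8.0 buffer with BSA and 1% DMSO. Developer then releases AMC from deacetylated substrate; fluorescence read at 360/460 nm.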

[1] = HDAC6, read-out: HDAC Isoform IC50 (nM) 6

T3 sequence (Q13547 whole entry, canonical isoform): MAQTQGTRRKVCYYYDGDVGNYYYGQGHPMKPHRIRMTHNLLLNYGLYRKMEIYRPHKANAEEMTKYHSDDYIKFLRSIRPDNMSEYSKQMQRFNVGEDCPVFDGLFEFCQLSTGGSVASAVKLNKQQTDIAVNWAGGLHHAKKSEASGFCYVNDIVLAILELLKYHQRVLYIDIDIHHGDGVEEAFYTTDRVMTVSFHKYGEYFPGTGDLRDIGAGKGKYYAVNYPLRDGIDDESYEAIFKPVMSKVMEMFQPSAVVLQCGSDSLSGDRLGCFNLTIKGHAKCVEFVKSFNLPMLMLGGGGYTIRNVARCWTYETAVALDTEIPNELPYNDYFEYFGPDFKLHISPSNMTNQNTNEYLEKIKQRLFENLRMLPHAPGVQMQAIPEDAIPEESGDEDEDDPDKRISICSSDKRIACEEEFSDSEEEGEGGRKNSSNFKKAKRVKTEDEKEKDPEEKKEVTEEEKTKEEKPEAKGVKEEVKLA

IC50 (Human HDAC7) [nM] | IC50 (Recombinant human HDAC6; [1]) [nM] | IC50 (Human HDAC1) [nM] | IC50 (Recombinant human HDAC6; With assay conditions in the experimental section described herein, read-out: HDAC6 IC50) [nM] | SMILES
≤ 1000 | ≤ 500 | > 10000 | – | O=C(c1cnnc(N(Cc2ccc(-c3noc(C(F)(F)F)n3)s2)c2cnccn2)c1)N1CCC1 [Example FS, 5-(Azetidine-1-carbonyl)-N-(pyrazin-2-yl)-N-({5-[5-(trifluoromethyl)-1,2,4-oxadiazol-3-yl]thiophen-2-yl}methyl)pyridazin-3-amine]
≤ 10000 | ≤ 500 | > 10000 | – | O=C(c1cnnc(N(Cc2ccc(-c3noc(C(F)(F)F)n3)s2)c2cnccn2)c1)N1CCC(F)(F)CC1 [Example FY, 5-(4,4-Difluoropiperidine-1-carbonyl)-N-(pyrazin-2-yl)-N-({5-[5-(trifluoromethyl)-1,2,4-oxadiazol-3-yl]thiophen-2-yl}methyl)pyridazin-3-amine]
≤ 1000 | ≤ 500 | > 10000 | – | CN1CCN(C(=O)c2cnnc(N(Cc3ccc(-c4noc(C(F)(F)F)n4)s3)c3cnccn3)c2)CC1 [Example EC, 5-(4-Methylpiperazine-1-carbonyl)-N-(pyrazin-2-yl)-N-({5-[5-(trifluoromethyl)-1,2,4-oxadiazol-3-yl]thiophen-2-yl}methyl)pyridazin-3-amine]
≤ 10000 | ≤ 500 | > 10000 | – | O=C(c1cnnc(N(Cc2ccc(-c3noc(C(F)(F)F)n3)s2)c2cnccn2)c1)N1CCS(=O)(=O)CC1 [Example ED, 4-{6-[(Pyrazin-2-yl)({5-[5-(trifluoromethyl)-1,2,4-oxadiazol-3-yl]thiophen-2-yl}methyl)amino]pyridazine-4-carbonyl}-1λ^6-thiomorpholine-1,1-dione]
≤ 1000 | ≤ 500 | > 10000 | 99.1 | O=C(c1cnnc(N(Cc2ccc(-c3noc(C(F)(F)F)n3)s2)c2cnccn2)c1)N1CCOCC1 [Example EB, 5-(Morpholine-4-carbonyl)-N-(pyrazin-2-yl)-N-({5-[5-(trifluoromethyl)-1,2,4-oxadiazol-3-yl]thiophen-2-yl}methyl)pyridazin-3-amine]

The next lines start with the molecule.

SMILES | IC50 (Human HDAC7) [nM] | IC50 (Recombinant human HDAC6; [1]) [nM] | IC50 (Human HDAC1) [nM] | IC50 (Recombinant human HDAC6; With assay conditions in the experimental section described herein, read-out: HDAC6 IC50) [nM]
Cc1cnnc(N(Cc2ccc(-c3noc(C(F)(F)F)n3)s2)c2cnccn2)c1 [Example GN, 5-Methyl-N-(pyrazin-2-yl)-N-({5-[5-(trifluoromethyl)-1,2,4-oxadiazol-3-yl]thiophen-2-yl}methyl)pyridazin-3-amine] | ≤ 1000 | ≤ 500 | > 10000 | –
CNC(=O)c1cnnc(N(Cc2ccc(-c3noc(C(F)(F)F)n3)s2)c2cnccn2)c1 [Example DY, N-Methyl-6-[(pyrazin-2-yl)({5-[5-(trifluoromethyl)-1,2,4-oxadiazol-3-yl]thiophen-2-yl}methyl)amino]pyridazine-4-carboxamide] | ≤ 500 | ≤ 500 | > 10000 | –
CC(=O)Nc1cnnc(N(Cc2ccc(-c3noc(C(F)(F)F)n3)s2)c2cnccn2)c1 [Example FM, N-{6-[(Pyrazin-2-yl)({5-[5-(trifluoromethyl)-1,2,4-oxadiazol-3-yl]thiophen-2-yl}methyl)amino]pyridazin-4-yl}acetamide] | ≤ 1000 | ≤ 500 | ≤ 10000 | –
O=C(c1ccc(N(Cc2ccc(-c3noc(C(F)(F)F)n3)s2)c2cnccn2)nn1)N1CCCCC1 [Example FG, 6-(Piperidine-1-carbonyl)-N-(pyrazin-2-yl)-N-({5-[5-(trifluoromethyl)-1,2,4-oxadiazol-3-yl]thiophen-2-yl}methyl)pyridazin-3-amine] | ≤ 500 | ≤ 500 | > 10000 | –
O=C(O)c1cnnc(N(Cc2ccc(-c3noc(C(F)(F)F)n3)s2)c2cnccn2)c1 [Example DW, 6-[(Pyrazin-2-yl)({5-[5-(trifluoromethyl)-1,2,4-oxadiazol-3-yl]thiophen-2-yl}methyl)amino]pyridazine-4-carboxylic acid] | ≤ 10000 | ≤ 500 | > 10000 | –
FC(F)c1cnnc(N(Cc2ccc(-c3noc(C(F)(F)F)n3)s2)c2cnccn2)c1 [Example GV, 5-(Difluoromethyl)-N-(pyrazin-2-yl)-N-({5-[5-(trifluoromethyl)-1,2,4-oxadiazol-3-yl]thiophen-2-yl}methyl)pyridazin-3-amine] | ≤ 1000 | ≤ 500 | > 10000 | –
O=C(c1cnnc(N(Cc2ccc(-c3noc(C(F)(F)F)n3)s2)c2cnccn2)c1)N1CC2(COC2)C1 [Example FZ, 5-{2-Oxa-6-azaspiro[3.3]heptane-6-carbonyl}-N-(pyrazin-2-yl)-N-({5-[5-(trifluoromethyl)-1,2,4-oxadiazol-3-yl]thiophen-2-yl}methyl)pyridazin-3-amine] | ≤ 1000 | ≤ 500 | > 10000 | –
FC(F)(F)c1nc(-c2ccc(CN(c3cnccn3)c3ccc(CN4CCOCC4)nn3)s2)no1 [Example FN, 6-[(Morpholin-4-yl)methyl]-N-(pyrazin-2-yl)-N-({5-[5-(trifluoromethyl)-1,2,4-oxadiazol-3-yl]thiophen-2-yl}methyl)pyridazin-3-amine] | ≤ 1000 | ≤ 500 | > 10000 | –
FC(F)(F)c1nc(-c2ccc(CN(c3cnccn3)c3cc(-c4ccccn4)cnn3)s2)no1 [Example GM, N-(Pyrazin-2-yl)-5-(pyridin-2-yl)-N-({5-[5-(trifluoromethyl)-1,2,4-oxadiazol-3-yl]thiophen-2-yl}methyl)pyridazin-3-amine] | ≤ 500 | ≤ 500 | > 10000 | –
NC(=O)c1cnnc(N(Cc2ccc(-c3noc(C(F)(F)F)n3)s2)c2cnccn2)c1 [Example DX, 6-[(Pyrazin-2-yl)({5-[5-(trifluoromethyl)-1,2,4-oxadiazol-3-yl]thiophen-2-yl}methyl)amino]pyridazine-4-carboxamide] | ≤ 500 | ≤ 500 | > 10000 | –
O=C(c1ccc(N(Cc2ccc(-c3noc(C(F)(F)F)n3)s2)c2cnccn2)nn1)N1CC[S+]([O-])CC1 [Example FD, 4-{6-[(Pyrazin-2-yl)({5-[5-(trifluoromethyl)-1,2,4-oxadiazol-3-yl]thiophen-2-yl}methyl)amino]pyridazine-3-carbonyl}-1lambda4-thiomorpholin-1-one] | ≤ 500 | ≤ 500 | ≤ 10000 | –
COC1CN(C(=O)c2ccc(N(Cc3ccc(-c4noc(C(F)(F)F)n4)s3)c3cnccn3)nn2)C1 [Example DR, 6-(3-Methoxyazetidine-1-carbonyl)-N-(pyrazin-2-yl)-N-({5-[5-(trifluoromethyl)-1,2,4-oxadiazol-3-yl]thiophen-2-yl}methyl)pyridazin-3-amine] | ≤ 500 | ≤ 500 | ≤ 10000 | –
